Experimental data reported in patent US20090275546A1, “Diagnostic tests and personalized treatment regimes for cancer stem cells” (Istituto Superiore di Sanita, priority 2008, published 2009).
“Also recorded” adds a separate entry of the source. Like-named read-outs stand apart in the source and are kept apart here.

Key:
[1] = tested on: CTSC#85; experiment: dose-response analysis, viability (CelltiterGlo); type: cell-based, human; settings: escalating doses
[2] = target: rat brain CaM kinase II; settings: cited from earlier work
[3] = tested on: TNF-a-inducible phosphorylation of IkBa; settings: cited from earlier work
[4] = target: CaM kinase II; settings: cited from earlier work
[5] = tested on: colon CSCs; experiment: kinase inhibitor library screening, ATP-based viability assay; type: cell-based, human
Description: A flowchart showing the steps of the screenings performed on colon CSCs, is depicted in FIG. 5. Before treatment with inhibitors, colon CSCs undergo trypsin/EDTA dissociation in order to be consistently plated into 96-well microtiter plates. After 48 h cells recover from dissociation and form spheroids again. Inhibitors are subsequently added to the cells as single agents while ATP-based-viability assay are performed after another 48 h.
Viability controls are cells treated with DMSO whereas staurosporin-treated cells are positive controls of death.
(§1) Cells were incubated at 37° C. for a variable time, depending on the size and on the sensitivity of each colon CSC line, until single cell suspension was achieved. Cells were then washed once in fresh medium and plated into 96-well microtiter plates in 80 μL volume. The number of cells plated ranged from 2000 to 5000 per well. Drugs were added after 48 h by dispensing each well with 20 μL of medium containing 5× concentrated compounds. We purchased the kinase inhibitor library from Enzo Life Sciences International, Inc (formerly BIOMOL International, L.P., PA, USA) and used each single inhibitor at a final […] concentration. As a control DMSO was added to cells at a final concentration of 0.1% (v/v).
Measure of cell viability was performed using CelltiterGlo® luminescent assay (Promega Corporation, Madison, Wis., USA) and luminescence was recorded on Beckman Coulter DTX880 multimode reader (Beckman Coulter Inc., Fullerton, Calif., USA) with an integration time of 100 ms.
Statistical analysis and IC50 calculations were performed with the aid of Microsoft Excel (Microsoft Corporation, www.microsoft.com) and GraphPad Prism version 4.00 for Windows, (GraphPad Software, San Diego, Calif., www.graphpad.com) while hierarchical clustering was performed with TMev v4.3.01 [10]. Normalized viability represents the signal intensity of each replicate divided by the average of single plate DMSO controls (in percent). Dunnett's post-test was performed on at least three independent experiments for each colon CSC line to calculate statistical significance versus DMSO controls. P values were subsequently clustered by using Euclidean distance as metric and complete linkage as a linkage method.

[6] = target: c-Raf (Homo sapiens, UniProt P04049); settings: selectivity c-Raf over B-Raf; cited from earlier work
c-Raf, sequence (P04049 whole entry): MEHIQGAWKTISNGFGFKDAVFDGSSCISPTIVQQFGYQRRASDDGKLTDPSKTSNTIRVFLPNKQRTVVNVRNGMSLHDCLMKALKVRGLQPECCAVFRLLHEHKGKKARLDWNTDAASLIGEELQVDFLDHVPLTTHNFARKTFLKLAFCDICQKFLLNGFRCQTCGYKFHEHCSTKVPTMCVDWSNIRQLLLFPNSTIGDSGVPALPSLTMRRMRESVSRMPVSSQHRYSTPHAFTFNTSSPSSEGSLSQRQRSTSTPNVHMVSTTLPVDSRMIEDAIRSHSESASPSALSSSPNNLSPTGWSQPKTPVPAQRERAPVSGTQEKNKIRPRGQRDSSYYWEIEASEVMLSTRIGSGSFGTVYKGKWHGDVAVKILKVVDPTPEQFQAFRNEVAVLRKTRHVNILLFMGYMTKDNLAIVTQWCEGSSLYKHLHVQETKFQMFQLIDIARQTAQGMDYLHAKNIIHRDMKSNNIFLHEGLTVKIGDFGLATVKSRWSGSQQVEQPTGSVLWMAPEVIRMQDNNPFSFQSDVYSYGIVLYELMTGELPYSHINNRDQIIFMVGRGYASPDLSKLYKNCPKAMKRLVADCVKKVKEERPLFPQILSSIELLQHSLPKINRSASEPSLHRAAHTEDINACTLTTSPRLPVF

[7] = tested on: many other protein kinases; settings: even at 50 μM; cited from earlier work
[8] = target: SAPK2a/p38a (Homo sapiens, UniProt Q16539); settings: cited from earlier work
SAPK2a/p38a, sequence (Q16539 whole entry): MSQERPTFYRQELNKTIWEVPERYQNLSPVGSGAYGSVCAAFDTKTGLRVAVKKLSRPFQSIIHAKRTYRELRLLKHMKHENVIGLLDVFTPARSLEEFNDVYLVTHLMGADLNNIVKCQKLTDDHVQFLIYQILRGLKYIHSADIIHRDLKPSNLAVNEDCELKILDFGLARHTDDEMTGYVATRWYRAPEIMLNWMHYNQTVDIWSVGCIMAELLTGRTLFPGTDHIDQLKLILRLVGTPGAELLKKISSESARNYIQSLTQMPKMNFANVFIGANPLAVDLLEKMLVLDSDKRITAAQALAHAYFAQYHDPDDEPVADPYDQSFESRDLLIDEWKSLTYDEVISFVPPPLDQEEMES

[9] = target: SAPK2b/p38b2 (Homo sapiens, UniProt Q15759); settings: cited from earlier work
SAPK2b/p38b2, sequence (Q15759 whole entry): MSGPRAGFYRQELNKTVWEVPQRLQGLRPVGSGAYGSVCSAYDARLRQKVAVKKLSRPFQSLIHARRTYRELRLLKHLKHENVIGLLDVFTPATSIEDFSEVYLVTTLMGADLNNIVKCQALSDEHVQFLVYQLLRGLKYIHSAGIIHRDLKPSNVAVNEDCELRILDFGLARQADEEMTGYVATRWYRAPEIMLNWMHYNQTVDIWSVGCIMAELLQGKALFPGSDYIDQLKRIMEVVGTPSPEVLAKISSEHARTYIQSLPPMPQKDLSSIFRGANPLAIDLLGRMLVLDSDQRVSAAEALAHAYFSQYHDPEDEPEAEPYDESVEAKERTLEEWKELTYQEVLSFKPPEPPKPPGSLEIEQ

[10] = target: PKCd (Homo sapiens, UniProt Q05655); settings: cited from earlier work
[11] = tested on: PKCa, PKCb, and PKCg isoforms; settings: cited from earlier work
[12] = target: CaM kinase III (Homo sapiens, UniProt O00418); settings: cited from earlier work
[13] = tested on: PKCe, PKCh, and PKCz; settings: reduced inhibitory activity; cited from earlier work
[14] = target: platelet-derived growth factor receptor tyrosine kinase (Homo sapiens, UniProt P09619); settings: cited from earlier work
platelet-derived growth factor receptor tyrosine kinase, sequence (P09619 33-1106): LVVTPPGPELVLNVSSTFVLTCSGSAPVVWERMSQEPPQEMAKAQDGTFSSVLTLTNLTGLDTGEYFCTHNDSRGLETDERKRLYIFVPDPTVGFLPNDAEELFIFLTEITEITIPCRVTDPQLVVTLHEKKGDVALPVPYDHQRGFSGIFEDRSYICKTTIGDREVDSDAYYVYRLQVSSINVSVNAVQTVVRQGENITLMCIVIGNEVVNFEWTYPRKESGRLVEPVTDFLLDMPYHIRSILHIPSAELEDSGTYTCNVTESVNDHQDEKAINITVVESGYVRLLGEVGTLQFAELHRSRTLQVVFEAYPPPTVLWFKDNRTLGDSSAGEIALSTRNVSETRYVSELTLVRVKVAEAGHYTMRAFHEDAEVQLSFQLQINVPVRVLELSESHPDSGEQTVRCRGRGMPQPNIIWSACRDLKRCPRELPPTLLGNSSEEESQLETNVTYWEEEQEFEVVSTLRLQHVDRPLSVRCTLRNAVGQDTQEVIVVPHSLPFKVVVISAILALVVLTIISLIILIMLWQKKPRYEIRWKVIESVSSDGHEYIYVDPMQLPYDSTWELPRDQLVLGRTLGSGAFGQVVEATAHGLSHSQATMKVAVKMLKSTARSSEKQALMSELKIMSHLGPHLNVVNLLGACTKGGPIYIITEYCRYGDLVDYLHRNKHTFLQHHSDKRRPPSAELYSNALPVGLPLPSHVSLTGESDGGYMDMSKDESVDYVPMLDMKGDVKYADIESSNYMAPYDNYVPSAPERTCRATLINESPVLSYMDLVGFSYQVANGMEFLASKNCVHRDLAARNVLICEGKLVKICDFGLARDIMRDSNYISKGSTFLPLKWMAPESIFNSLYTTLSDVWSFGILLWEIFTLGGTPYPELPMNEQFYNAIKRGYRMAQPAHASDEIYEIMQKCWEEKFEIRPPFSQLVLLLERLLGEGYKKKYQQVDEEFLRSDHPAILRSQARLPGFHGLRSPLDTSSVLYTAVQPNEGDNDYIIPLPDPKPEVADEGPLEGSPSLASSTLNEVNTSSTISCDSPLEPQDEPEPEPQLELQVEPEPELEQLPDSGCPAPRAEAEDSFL

[15] = target: protein kinase A (Homo sapiens, UniProt P17612); settings: cited from earlier work
[16] = target: protein kinase C (PKC); settings: cited from earlier work
[17] = tested on: GSK-3 in primary adipocytes; settings: cited from earlier work
[18] = target: T1, GSK-3b immunoprecipitates (Homo sapiens, UniProt P49841); settings: cited from earlier work
T1 construct: host or cells: immunoprecipitates
T1 sequence (P49841 whole entry): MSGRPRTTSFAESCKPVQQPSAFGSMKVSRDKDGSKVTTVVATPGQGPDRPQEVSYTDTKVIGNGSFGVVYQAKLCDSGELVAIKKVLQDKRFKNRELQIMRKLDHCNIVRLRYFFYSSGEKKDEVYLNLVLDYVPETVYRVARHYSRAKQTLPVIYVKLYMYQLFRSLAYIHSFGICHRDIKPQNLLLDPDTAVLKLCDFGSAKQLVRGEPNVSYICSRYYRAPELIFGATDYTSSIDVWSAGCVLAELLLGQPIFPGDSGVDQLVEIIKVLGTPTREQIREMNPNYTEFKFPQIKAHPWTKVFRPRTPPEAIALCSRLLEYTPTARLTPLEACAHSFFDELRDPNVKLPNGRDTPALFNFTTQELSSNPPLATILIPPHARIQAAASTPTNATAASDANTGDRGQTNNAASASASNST

[19] = target: casein kinase I and PKA, insulin receptor kinase fragment; settings: range over casein kinase I; cited from earlier work
[20] = target: Cdk5 (Homo sapiens, UniProt Q00535); settings: cited from earlier work
[21] = tested on: CTSC#85 (TRAIL-resistant colon CSC line); experiment: drug combination experiment; type: cell-based, human; settings: 24 h, TRAIL IC50/17-AAG IC50
Description: Normalized viability at 24 h is plotted against drug combinations. […] Recombinant human Killer TRAIL was purchased from Alexis (San Diego, Calif., USA) while Geldanamycin, 17-AAG and 17-DMAG were purchased from Calbiochem (Nottingham, UK). All agents were diluted into fresh medium at the specified concentrations. Measure of cell viability was performed using CelltiterGlo® luminescent assay (Promega Corporation, Madison, Wis., USA) and luminescence was recorded on Beckman Coulter DTX880 multimode reader (Beckman Coulter Inc., Fullerton, Calif., USA) with an integration time of 100 ms.

[22] = tested on: colon cancer cell lines; settings: commercial (non-stem) cell lines, colon and lung; cited from earlier work
[23] = target: protein kinase G; settings: cited from earlier work
[24] = target: myosin light chain kinase; settings: cited from earlier work
[25] = target: human PDGF a-receptors (Homo sapiens, UniProt P16234); settings: cited from earlier work
human PDGF a-receptors, sequence (P16234 24-1089): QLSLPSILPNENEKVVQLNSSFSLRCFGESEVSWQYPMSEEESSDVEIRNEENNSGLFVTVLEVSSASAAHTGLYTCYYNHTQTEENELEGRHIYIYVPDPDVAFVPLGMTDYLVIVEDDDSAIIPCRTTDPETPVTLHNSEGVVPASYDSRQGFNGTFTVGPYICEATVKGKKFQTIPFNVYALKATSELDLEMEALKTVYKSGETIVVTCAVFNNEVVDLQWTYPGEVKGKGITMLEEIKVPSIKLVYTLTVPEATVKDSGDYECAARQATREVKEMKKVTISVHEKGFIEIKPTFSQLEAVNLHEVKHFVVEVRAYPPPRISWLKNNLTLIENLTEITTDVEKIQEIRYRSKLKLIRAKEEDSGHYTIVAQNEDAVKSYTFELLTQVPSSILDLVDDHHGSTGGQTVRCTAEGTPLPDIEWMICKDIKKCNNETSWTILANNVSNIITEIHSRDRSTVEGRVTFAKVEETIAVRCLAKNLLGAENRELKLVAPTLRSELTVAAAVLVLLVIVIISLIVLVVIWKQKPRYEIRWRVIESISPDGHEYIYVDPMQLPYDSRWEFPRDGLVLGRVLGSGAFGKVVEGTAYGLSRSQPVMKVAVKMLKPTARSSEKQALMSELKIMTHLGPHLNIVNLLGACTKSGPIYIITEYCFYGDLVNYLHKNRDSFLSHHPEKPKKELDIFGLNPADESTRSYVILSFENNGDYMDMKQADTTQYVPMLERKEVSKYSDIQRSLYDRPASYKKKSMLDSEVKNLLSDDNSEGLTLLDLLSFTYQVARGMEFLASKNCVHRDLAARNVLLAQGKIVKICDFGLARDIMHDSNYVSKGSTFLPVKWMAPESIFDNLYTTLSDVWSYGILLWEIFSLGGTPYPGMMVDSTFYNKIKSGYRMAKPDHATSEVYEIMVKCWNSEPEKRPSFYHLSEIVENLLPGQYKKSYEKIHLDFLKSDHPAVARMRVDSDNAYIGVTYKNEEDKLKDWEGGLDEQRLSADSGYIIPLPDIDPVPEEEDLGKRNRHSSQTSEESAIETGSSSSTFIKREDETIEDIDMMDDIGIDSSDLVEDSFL

[26] = target: human PDGF b-receptors (Homo sapiens, UniProt P09619); settings: cited from earlier work
human PDGF b-receptors, sequence (P09619 33-1106): as the sequence (P09619 33-1106) above

[27] = target: c-kit (Homo sapiens, UniProt P10721); settings: at 5 μM; cited from earlier work
c-kit, sequence (P10721 26-976): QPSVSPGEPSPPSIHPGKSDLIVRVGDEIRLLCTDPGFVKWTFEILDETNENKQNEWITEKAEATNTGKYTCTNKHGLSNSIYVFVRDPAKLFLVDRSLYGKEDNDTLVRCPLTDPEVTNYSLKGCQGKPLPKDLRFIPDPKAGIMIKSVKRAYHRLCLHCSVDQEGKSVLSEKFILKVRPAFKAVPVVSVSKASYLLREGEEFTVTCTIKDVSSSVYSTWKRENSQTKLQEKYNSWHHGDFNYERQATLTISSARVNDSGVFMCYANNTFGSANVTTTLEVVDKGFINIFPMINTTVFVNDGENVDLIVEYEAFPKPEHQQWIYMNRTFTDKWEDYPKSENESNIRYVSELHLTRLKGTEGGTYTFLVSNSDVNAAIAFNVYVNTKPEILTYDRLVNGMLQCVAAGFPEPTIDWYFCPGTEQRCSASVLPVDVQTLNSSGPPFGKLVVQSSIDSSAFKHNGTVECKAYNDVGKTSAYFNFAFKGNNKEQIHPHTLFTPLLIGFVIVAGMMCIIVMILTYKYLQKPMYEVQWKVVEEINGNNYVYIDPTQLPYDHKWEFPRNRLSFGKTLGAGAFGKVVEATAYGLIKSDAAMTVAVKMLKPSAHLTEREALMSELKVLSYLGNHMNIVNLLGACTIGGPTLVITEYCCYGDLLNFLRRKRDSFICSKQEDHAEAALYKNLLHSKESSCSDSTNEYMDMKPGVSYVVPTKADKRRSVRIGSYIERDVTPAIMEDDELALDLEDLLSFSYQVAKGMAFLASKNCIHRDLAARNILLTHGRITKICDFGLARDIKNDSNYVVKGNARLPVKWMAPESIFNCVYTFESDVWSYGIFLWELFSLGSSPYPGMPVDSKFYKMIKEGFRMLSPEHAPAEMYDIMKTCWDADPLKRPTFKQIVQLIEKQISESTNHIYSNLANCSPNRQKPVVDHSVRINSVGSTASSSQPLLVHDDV

[28] = tested on: colon CSCs; experiment: dose-response analysis on four colon CSCs; type: cell-based, human; settings: single agent, escalating doses, four colon CSC lines
Description: as §1, with “(v/v). Recombinant human Killer TRAIL was purchased from Alexis (San Diego, Calif., USA) while Geldanamycin, 17-AAG and 17-DMAG were purchased from Calbiochem (Nottingham, UK). All agents were diluted into fresh medium at the specified concentrations. Measure of cell viability was performed using CelltiterGlo® luminescent assay (Promega Corporation, Madison, Wis., USA) and luminescence was recorded on Beckman Coulter DTX880 multimode reader (Beckman Coulter Inc., Fullerton, Calif., USA) with an integration time of 100 ms.” for “(v/v).”

[29] = single agent, 5 μM, viability after 48 h, four colon CSC lines

For `CO[C@H]1/C=C\C=C(/C)C(=O)NC2=CC(=O)C(NCCN(C)C)=C(C[C@@H](C)C[C@H](OC)[C@H](O)[C@@H](C)/C=C(\C)[C@@H]1OC(N)=O)C2=O` [17-DMAG, 17-dimethylaminoethylamino-17-demethoxy-geldanamycin], the “sensitivity of the TRAIL-resistant colon CSC line to single agent” value [1] was “sensitive”.

For `CN([C@@H](Cc1ccc(OS(=O)(=O)c2cccc3cnccc23)cc1)C(=O)N1CCN(c2ccccc2)CC1)S(=O)(=O)c1cccc2cnccc12` [KN-62], the Ki [2] is given as 900 nM.

For `Cc1ccc(S(=O)(=O)/C=C/C#N)cc1` [BAY 11-7082], the IC50 [3] is listed as 10000 nM.

In the case of `COc1ccc(S(=O)(=O)N(CCO)c2ccccc2CN(C)C/C=C/c2ccc(Cl)cc2)cc1` [KN-93], the Ki [4] is listed as 370 nM.

In the case of `Cc1ccc(NC(=O)c2cccc(N(C)C)c2)cc1NC(=O)c1ccc(O)cc1` [ZM 336372], the “effect on colon CSC proliferation / number versus DMSO controls” value [5] is listed as “lead to significant proliferation”, the “increased potency on c-Raf compared to B-Raf” value [6] is listed as “ten-fold” and the “inhibition of many other protein kinases” value [7] is listed as “potency compared to B-Raf, but does not inhibit many other”. The IC50 [8] was 2000 nM and the IC50 [9] was 2000 nM.

In the case of `CC(=O)c1c(O)c(C)c(O)c(Cc2c(O)c3c(c(C(=O)/C=C/c4ccccc4)c2O)OC(C)(C)C=C3)c1O` [Rottlerin], the “effect on colon CSC proliferation / number versus DMSO controls” value [5, 29] is listed as “significantly lead to a reduction in colon CSC numbers” and the IC50 [10] is listed as 3000 to 6000 nM.

In the case of `Oc1ccc(-c2nc(-c3ccncc3)c(-c3ccc(F)cc3)[nH]2)cc1` [SB 202190], the “effect on colon CSC proliferation / number versus DMSO controls” value [5, 29] is given as “lead to significant proliferation”, the IC50 [11] is given as 30000 to 42000 nM and the IC50 [12] is given as 5300 nM. The IC50 [13] was 80000 to 100000 nM.

For `CC(C)(C)c1cc(C=C(C#N)C#N)cc(C(C)(C)C)c1O` [AG 17], the “effect on colon CSC proliferation / number versus DMSO controls” value [5, 29] is listed as “significantly lead to a reduction in colon CSC numbers” and the IC50 [14] is listed as 500 nM.

For `Cn1cc(C2=C(c3cn(CCCSC(=N)N)c4ccccc34)C(=O)NC2=O)c2ccccc21` [Ro-31-8220], the “effect on colon CSC proliferation / number versus DMSO controls” value [5, 29] is given as “significantly lead to a reduction in colon CSC numbers”, the IC50 [15] is given as 900 nM and the IC50 [4] is given as 17000 nM. For the same molecule, the IC50 [16] was 10 nM, the IC50 [17] was 6.8 nM and the IC50 [18] was 2.8 nM.

In the case of `Nc1ncnc2c1c(I)cn2[C@@H]1O[C@H](CO)[C@@H](O)[C@H]1O` [5-Iodotubercidin], the “effect on colon CSC proliferation / number versus DMSO controls” value [5, 29] is listed as “significantly lead to a reduction in colon CSC numbers” and the IC50 [19] is listed as 400 to 28000 nM.

In the case of Indirubin-3′-monoxime, the IC50 [20] is listed as 100 nM.

In the case of `C=CCNC1=C2C[C@@H](C)C[C@H](OC)[C@H](O)[C@@H](C)/C=C(\C)[C@H](OC(N)=O)[C@@H](OC)/C=C\C=C(/C)C(=O)NC(=CC1=O)C2=O` [17-AAG, 17-Allylamino-17-demethoxygeldanamycin], the “effect of combination with TRAIL on normalized viability” value [21] is given as “synergistic effect; also recorded: rapidly (24 h) sensitized to TRAIL treatment” and the “sensitization of tumor cell lines to TRAIL” value [22] is given as “sensitizes colon cancer cell lines; also recorded: TRAIL resistance can be overcome”.

For `O=S(=O)(c1cccc2cnccc12)N1CCCNCC1` [HA-1077], the “effect on colon CSC proliferation / number versus DMSO controls” value [5, 29] is listed as “lead to significant proliferation”, the Ki [23] is listed as 1600 nM and the Ki [24] is listed as 36000 nM.

In the case of `COc1cc2ncc(-c3ccccc3)nc2cc1OC` [AG 1296], the IC50 [25] is given as 1000 nM, the IC50 [26] is given as 800 nM and the inhibition [27] is given as “c-kit (80% inhibition at 5 μM)”.

B1: TRAIL: Tumor necrosis factor-related apoptosis-inducing ligand; recombinant human Killer TRAIL from Alexis (protein, UniProt P50591 1-281, looked up)
Tumor necrosis factor ligand …: MAMMEVQGGPSLGQTCVLIVIFTVLLQSLCVAVTYVYFTNELKQMQDKYSKSGIACFLKEDDSYWDPNDEESMNSPCWQVKWQLRQLVRKMILRTSEETISTVQEKQQNISPLVRERGPQRVAAHITGTRGRSNTLSSPNSKNEKALGRKINSWESSRSGHSFLSNLHLRNGELVIHEKGFYYIYSQTYFRFQEEIKENTKNDKQMVQYIYKYTSYPDPILLMKSARNSCWSKDAEYGLYSIYQGGIFELKENDRIFVSVTNEHLIDMDHEASFFGAFLVG
For B1, the “resistance of colon CSCs to treatment alone” value [28] was “One out of four colon CSCs is resistant”.
